From patent publication US20250163104A1, “MACROCYCLIC IMMUNOMODULATORS” (priority 2021, published 2025)
Where a SMILES comes first, the peptide text is derived from it. Bridges are numbered along the chain shown (N, C = ends). [ ]: non-standard residue; d: D form. The star is where a group is joined. ξ: configuration not given here. Phe(4-COOH) = N[C@@H](Cc1ccc(C(=O)O)cc1)C(=O)O; Bip = N[C@@H](Cc1ccc(-c2ccccc2)cc1)C(=O)O; Phe(3-Me) = Cc1cccc(C[C@H](N)C(=O)O)c1; ξW = NC(Cc1c[nH]c2ccccc12)C(=O)O; Cit = NC(=O)NCCC[C@H](N)C(=O)O; Carboxymethyl = O=C(O)C*; Nle = CCCC[C@H](N)C(=O)O; Orn = NCCC[C@H](N)C(=O)O; Dab = NCC[C@H](N)C(=O)O; Dap = NC[C@H](N)C(=O)O

Target: T1, human PD-1 / PD-L1-Ig binding on Jurkat cell line over-expressing human PD-1 (Jurkat-PD-1) (Homo sapiens, UniProt Q15116)
T1 construct: expressed in transfected cells; host or cells: Jurkat
T1 sequence (Q15116 25-288): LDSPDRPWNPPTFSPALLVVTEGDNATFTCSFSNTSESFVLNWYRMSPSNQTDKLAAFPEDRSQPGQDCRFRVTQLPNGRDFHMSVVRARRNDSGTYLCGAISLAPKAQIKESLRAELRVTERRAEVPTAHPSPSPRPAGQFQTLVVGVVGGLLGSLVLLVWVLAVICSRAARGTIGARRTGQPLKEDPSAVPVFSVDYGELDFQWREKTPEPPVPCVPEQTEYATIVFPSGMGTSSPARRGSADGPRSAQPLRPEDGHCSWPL
Assay: Jurkat-PD-1 Cell Binding High-Content Screening Assay (CBA)
Assay type: cell-based
Details: Jurkat-PD-1 cells, PE-labeled PD-L1-Ig 20 nM final; read-out: Jurkat HPD1_PDL1 IC50
Procedure, shortened: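 Jurkat-hPD-1 cells in DMEM with 10% fetal calf serum receive test compound and are held at 37° C for 2 h. PE-labeled PD-L1-Ig is added at 20 nM final and left for 1 hour. Cells are then fixed and Hoechst-stained, and binding is measured by imaging.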

| IC50 [nM] | SMILES |
| --- | --- |
| 5.7 | CC[C@H](C)[C@@H]1NC(=O)[C@H](Cc2ccc(-c3ccccc3)cc2)NC(=O)[C@H](C(C)C)NC(=O)[C@H](Cc2cccc(C)c2)NC(=O)[C@H](CC(=O)O)NC(=O)[C@H](Cc2ccc(C(=O)O)cc2)NC(=O)[C@H](CN)NC(=O)CSC[C@@H](C(=O)N[C@@H](C)C(N)=O)NC(=O)[C@H]([C@@H](C)O)NC(=O)[C@H](C(C)C)NC(=O)[C@H](CC2CCCCC2)NC(=O)[C@H](CCN)NC(=O)[C@@H](CC(C)C)NC(=O)[C@H](CCCN)NC1=O [Compound 1204] |
| 8.9 | Cc1cccc(C[C@@H]2NC(=O)[C@H](CC(=O)O)NC(=O)[C@H](Cc3ccc(C(=O)O)cc3)NC(=O)[C@H](CN)NC(=O)CSC[C@@H](C(=O)N[C@@H](C)C(N)=O)NC(=O)[C@H]([C@@H](C)O)NC(=O)[C@H](C(C)C)NC(=O)[C@H](CC3CCCCC3)NC(=O)[C@H](CCN)NC(=O)[C@@H](CC(C)C)NC(=O)[C@H](CCCN)NC(=O)[C@H](C(C)C)NC(=O)[C@H](Cc3ccc(-c4ccccc4)cc3)NC(=O)[C@H](C(C)C)NC2=O)c1 [Compound 1206] |
| 2.7 | Cc1cccc(C[C@@H]2NC(=O)[C@H](CC(=O)O)NC(=O)[C@H](Cc3ccc(OCC(=O)O)cc3)NC(=O)[C@H](CN)NC(=O)CSC[C@@H](C(=O)N[C@@H](C)C(N)=O)NC(=O)[C@H]([C@@H](C)O)NC(=O)[C@H](C(C)C)NC(=O)[C@H](CC3CCCCC3)NC(=O)[C@H](CCN)NC(=O)[C@@H](CC(C)C)NC(=O)[C@H](CCCN)NC(=O)[C@H](CCCNC(N)=O)NC(=O)[C@H](Cc3ccc(-c4ccccc4)cc3)NC(=O)[C@H](C(C)C)NC2=O)c1 [Compound 1208] |
| 9.9 | CCCC[C@@H]1NC(=O)[C@H](CCN)NC(=O)[C@@H](CC(C)C)NC(=O)[C@H](CCCN)NC(=O)[C@H]([C@@H](C)CC)NC(=O)[C@H](Cc2ccc(-c3ccccc3)cc2)NC(=O)[C@H](C(C)C)NC(=O)[C@H](Cc2cccc(C)c2)NC(=O)[C@H](CC(=O)O)NC(=O)[C@H](Cc2ccc(OCC(=O)O)cc2)NC(=O)[C@H](CN)NC(=O)CSC[C@@H](C(=O)N[C@@H](C)C(N)=O)NC(=O)[C@H]([C@@H](C)O)NC(=O)[C@H](C(C)C)NC1=O [Compound 1209] |
| 11.5 | CC[C@H](C)[C@@H]1NC(=O)[C@H](Cc2ccc(-c3ccccc3)cc2)NC(=O)[C@H](C(C)C)NC(=O)[C@H](Cc2cccc(C)c2)NC(=O)[C@H](CC(=O)O)NC(=O)[C@H](Cc2ccc(OCC(=O)O)cc2)NC(=O)[C@H](CN)NC(=O)CSC[C@@H](C(=O)N[C@@H](C)C(N)=O)NC(=O)[C@H]([C@@H](C)O)NC(=O)[C@H](C(C)C)NC(=O)[C@H](CC2CCCCC2)NC(=O)[C@H](CCN)NC(=O)[C@@H](CC(C)C)NC(=O)[C@H](CCCN)NC1=O [Compound 1210] |
| 8.9 | CCCC[C@@H]1NC(=O)[C@H](CCN)NC(=O)[C@@H](CC(C)C)NC(=O)[C@H](CCCN)NC(=O)[C@H](C(C)C)NC(=O)[C@H](Cc2ccc(-c3ccccc3)cc2)NC(=O)[C@H](C(C)C)NC(=O)[C@H](Cc2cccc(C)c2)NC(=O)[C@H](CC(=O)O)NC(=O)[C@H](Cc2ccc(OCC(=O)O)cc2)NC(=O)[C@H](CN)NC(=O)CSC[C@@H](C(=O)N[C@@H](C)C(N)=O)NC(=O)[C@H]([C@@H](C)O)NC(=O)[C@H](C(C)C)NC1=O [Compound 1211] ({CH2CO}-[Dap]Y(Carboxymethyl)D[Phe(3-Me)]V[Bip]V[Orn][dL][Dab][Nle]VTCA-NH2; thioether N-14) |
| 6 | Cc1cccc(C[C@@H]2NC(=O)[C@H](CC(=O)O)NC(=O)[C@H](Cc3ccc(OCC(=O)O)cc3)NC(=O)[C@H](CN)NC(=O)CSC[C@@H](C(=O)N[C@@H](C)C(N)=O)NC(=O)[C@H]([C@@H](C)O)NC(=O)[C@H](C(C)C)NC(=O)[C@H](CC3CCCCC3)NC(=O)[C@H](CCN)NC(=O)[C@@H](CC(C)C)NC(=O)[C@H](CCCN)NC(=O)[C@H](C(C)C)NC(=O)[C@H](Cc3ccc(-c4ccccc4)cc3)NC(=O)[C@H](C(C)C)NC2=O)c1 [Compound 1212] |

More lines, now with the values behind:

| SMILES | IC50 [nM] |
| --- | --- |
| CCCC[C@@H]1NC(=O)[C@H](CCN)NC(=O)[C@@H](CC(C)C)NC(=O)[C@H](CCCN)NC(=O)[C@H](CCCNC(N)=O)NC(=O)[C@H](Cc2ccc(-c3ccccc3)cc2)NC(=O)[C@H](C(C)C)NC(=O)[C@H](Cc2cccc(C)c2)NC(=O)[C@H](CC(=O)O)NC(=O)[C@H](Cc2ccc(C(=O)O)cc2)NC(=O)[C@H](CN)NC(=O)CSC[C@@H](C(=O)N[C@@H](C)C(N)=O)NC(=O)[C@H]([C@@H](C)O)NC(=O)[C@H](C(C)C)NC1=O [Compound 1201] ({CH2CO}-[Dap][Phe(4-COOH)]D[Phe(3-Me)]V[Bip][Cit][Orn][dL][Dab][Nle]VTCA-NH2; thioether N-14) | 3.4 |
| Cc1cccc(C[C@@H]2NC(=O)[C@H](CC(=O)O)NC(=O)[C@H](Cc3ccc(C(=O)O)cc3)NC(=O)[C@H](CN)NC(=O)CSC[C@@H](C(=O)N[C@@H](C)C(N)=O)NC(=O)[C@H]([C@@H](C)O)NC(=O)[C@H](C(C)C)NC(=O)[C@H](CC3CCCCC3)NC(=O)[C@H](CCN)NC(=O)[C@@H](CC(C)C)NC(=O)[C@H](CCCN)NC(=O)[C@H](CCCNC(N)=O)NC(=O)[C@H](Cc3ccc(-c4ccccc4)cc3)NC(=O)[C@H](C(C)C)NC2=O)c1 [Compound 1202] | 9.8 |
| CCCC[C@@H]1NC(=O)[C@H](CCN)NC(=O)[C@@H](CC(C)C)NC(=O)[C@H](CCCN)NC(=O)[C@H]([C@@H](C)CC)NC(=O)[C@H](Cc2ccc(-c3ccccc3)cc2)NC(=O)[C@H](C(C)C)NC(=O)[C@H](Cc2cccc(C)c2)NC(=O)[C@H](CC(=O)O)NC(=O)[C@H](Cc2ccc(C(=O)O)cc2)NC(=O)[C@H](CN)NC(=O)CSC[C@@H](C(=O)N[C@@H](C)C(N)=O)NC(=O)[C@H]([C@@H](C)O)NC(=O)[C@H](C(C)C)NC1=O [Compound 1203] | 47.4 |
| CCCC[C@@H]1NC(=O)[C@H](CCN)NC(=O)[C@@H](CC(C)C)NC(=O)[C@H](CCCN)NC(=O)[C@H](C(C)C)NC(=O)[C@H](Cc2ccc(-c3ccccc3)cc2)NC(=O)[C@H](C(C)C)NC(=O)[C@H](Cc2cccc(C)c2)NC(=O)[C@H](CC(=O)O)NC(=O)[C@H](Cc2ccc(C(=O)O)cc2)NC(=O)[C@H](CN)NC(=O)CSC[C@@H](C(=O)N[C@@H](C)C(N)=O)NC(=O)[C@H]([C@@H](C)O)NC(=O)[C@H](C(C)C)NC1=O [Compound 1205] ({CH2CO}-[Dap][Phe(4-COOH)]D[Phe(3-Me)]V[Bip]V[Orn][dL][Dab][Nle]VTCA-NH2; thioether N-14) | 10.7 |
| CCCC[C@@H]1NC(=O)[C@H](CCN)NC(=O)[C@@H](CC(C)C)NC(=O)[C@H](CCCN)NC(=O)[C@H](CCCNC(N)=O)NC(=O)[C@H](Cc2ccc(-c3ccccc3)cc2)NC(=O)[C@H](C(C)C)NC(=O)[C@H](Cc2cccc(C)c2)NC(=O)[C@H](CC(=O)O)NC(=O)[C@H](Cc2ccc(OCC(=O)O)cc2)NC(=O)[C@H](CN)NC(=O)CSC[C@@H](C(=O)N[C@@H](C)C(N)=O)NC(=O)[C@H]([C@@H](C)O)NC(=O)[C@H](C(C)C)NC1=O [Compound 1207] ({CH2CO}-[Dap]Y(Carboxymethyl)D[Phe(3-Me)]V[Bip][Cit][Orn][dL][Dab][Nle]VTCA-NH2; thioether N-14) | 6.8 |
| CC(C)C[C@@H]1NC(=O)C(Cc2c[nH]c3ccccc23)NC(=O)[C@H](CC(=O)O)NC(=O)[C@H](Cc2ccc(O)cc2)NC(=O)[C@H](Cc2ccccc2)NC(=O)CSC[C@@H](C(=O)N[C@@H](C)C(N)=O)NC(=O)[C@H]([C@@H](C)O)NC(=O)[C@H](C(C)C)NC(=O)[C@H](CC(C)C)NC(=O)[C@H](CC(N)=O)NC(=O)[C@@H](CC(C)C)NC(=O)[C@H](CN)NC(=O)[C@H](C(C)C)NC(=O)[C@H](Cc2ccc(-c3ccccc3)cc2)NC1=O (stereo partly drawn) [Compound 1213] ({CH2CO}-FYD[ξW]L[Bip]V[Dap][dL]NLVTCA-NH2; thioether N-14) | 20.8 |
| CC(C)C[C@@H]1NC(=O)C(Cc2c[nH]c3ccccc23)NC(=O)[C@H](CC(=O)O)NC(=O)[C@H](Cc2ccc(O)cc2)NC(=O)[C@H](Cc2ccccc2)NC(=O)CSC[C@@H](C(=O)N[C@@H](C)C(N)=O)NC(=O)[C@H](CO)NC(=O)[C@H](C(C)C)NC(=O)[C@H](CC(C)C)NC(=O)[C@H](CC(N)=O)NC(=O)[C@@H](CC(C)C)NC(=O)[C@H](CCN)NC(=O)[C@H](C(C)C)NC(=O)[C@H](Cc2ccc(-c3ccccc3)cc2)NC1=O (stereo partly drawn) [Compound 1214] ({CH2CO}-FYD[ξW]L[Bip]V[Dab][dL]NLVSCA-NH2; thioether N-14) | 14.1 |
| CC(C)C[C@@H]1NC(=O)C(Cc2c[nH]c3ccccc23)NC(=O)[C@H](CC(=O)O)NC(=O)[C@H](Cc2ccc(O)cc2)NC(=O)[C@H](Cc2ccccc2)NC(=O)CSC[C@@H](C(=O)NCC(N)=O)NC(=O)[C@H]([C@@H](C)O)NC(=O)[C@H](C(C)C)NC(=O)[C@H](CC(C)C)NC(=O)[C@H](CC(N)=O)NC(=O)[C@@H](CC(C)C)NC(=O)[C@H](CCN)NC(=O)[C@H](C(C)C)NC(=O)[C@H](Cc2ccc(-c3ccccc3)cc2)NC1=O (stereo partly drawn) [Compound 1215] ({CH2CO}-FYD[ξW]L[Bip]V[Dab][dL]NLVTCG-NH2; thioether N-14) | 47 |
| CC[C@H](C)[C@@H]1NC(=O)[C@H](Cc2ccc(-c3ccccc3)cc2)NC(=O)[C@H](CC(C)C)NC(=O)C(Cc2c[nH]c3ccccc23)NC(=O)[C@H](CC(=O)O)NC(=O)[C@H](Cc2ccc(O)cc2)NC(=O)[C@H](Cc2ccccc2)NC(=O)CSC[C@@H](C(=O)N[C@@H](C)C(N)=O)NC(=O)[C@H](CO)NC(=O)[C@H](C(C)C)NC(=O)[C@H](CC(C)C)NC(=O)[C@H](CC(N)=O)NC(=O)[C@@H](CC(C)C)NC(=O)[C@H](CN)NC1=O (stereo partly drawn) [Compound 1216] ({CH2CO}-FYD[ξW]L[Bip]I[Dap][dL]NLVSCA-NH2; thioether N-14) | 22.2 |
| CC(C)C[C@@H]1NC(=O)C(Cc2c[nH]c3ccccc23)NC(=O)[C@H](CC(=O)O)NC(=O)[C@H](Cc2ccc(O)cc2)NC(=O)[C@H](Cc2ccccc2)NC(=O)CSC[C@@H](C(=O)N[C@@H](C)C(N)=O)NC(=O)[C@H](CO)NC(=O)[C@H](C(C)C)NC(=O)[C@H](CC(C)C)NC(=O)[C@H](CC(N)=O)NC(=O)[C@@H](CC(C)C)NC(=O)[C@H](CN)NC(=O)[C@H](CCCNC(N)=O)NC(=O)[C@H](Cc2ccc(-c3ccccc3)cc2)NC1=O (stereo partly drawn) [Compound 1217] ({CH2CO}-FYD[ξW]L[Bip][Cit][Dap][dL]NLVSCA-NH2; thioether N-14) | 25.4 |
